Data from US20050042244A1, “Method of controlling acarian and device for use in the same” (KURARAY CO LTD, priority 2002, published 2005).

What was measured:
[1] = tested on: Dermatophagoides pteronyssinus; assay: Repellence test method (invasion preventive method); type: in vivo; conditions: 1.0 g/m^2; for number of Acarina, 1 day later: untreated control 65; for number of Acarina, 2 days later: untreated control 132; for number of Acarina, 3 days later: untreated control 140
Protocol: The repellence rates of the isomer of farnesylacetone and phytone under 1.0 g/m^2 conditions for a kind of Dermatophagoides pteronyssinus were determined by the repellence test method (invasion preventive method: “Processing Technique” vol. 33, No. 2, pp. 153-155 (1998) “titled: Acarina repellent-processed product repellence test basic manual” (Apareru Seihin-tou Hinshitsu Seinou Taisaku Kyougikai). The results are shown in Table 1 below. […]

[2] = tested on: Dermatophagoides pteronyssinus; assay: Acarina repellence test by improved glass tube method; type: in vivo; conditions: filter paper that absorbed farnesylacetone (0.1 g); 37±1° C., 75±5% Rh, 48 hr; gas concentration 5 μg/L
Description: The “glass tube method” known as one of the repellence tests for Acarina repellent-processed fibers was modified and used for a repellence test.
In the L-shaped glass tube in the test section was fixed filter paper with a two-sided tape inside the glass tube at part D, a test sample (filter paper that absorbed farnesylacetone (0.1 g)) was placed, and the glass tube opening on the D side was sealed with an airtight PARAFILM. Then, a medium containing 10,000 live Acarina (Dermatophagoides pteronyssinus) were placed in part A of the L-shaped glass Lube, and the glass end on the A side was sealed with a high density fabric capable of preventing passage of Acarina while maintaining air permeability. This test apparatus was stood still in a container maintained at 37±1° C., 75±5% Rh for 48 hr. […] The farnesylacetone concentration of the gas in part D was measured by gas chromatography. […]
Subsequently, the feed for attraction in part C was taken out, and the number of Acarina that invaded into the feed for attraction was counted by the following method. […] The number of Acarina floating in the upper layer was counted. […] The repellence rate of the test sample was determined by the following formula and found to be 98%. […]

[3] = tested on: Dermatophagoides farinae; assay: Acarina repellence test by improved invasion prevention method (coated lid, vapor); type: in vivo; conditions: 25° C., 1 day
Protocol: The invasion prevention method was modified and a repellence test was performed.
As a lid to cover this box (4, 4′), two glass plates (length 5.5 cm, width 6 cm, thickness 1.3 mm) were prepared.
An ethanol solution of farnesylacetone (1%, 100 mg) was coated on the surface of one (test section side) of the two lids to cover the test box, and ethanol was air dried for 10 min. Then, a sample for Acarina attraction (50 mg) each was placed on both ends of the test box in the longitudinal direction, and the above-mentioned farnesylacetone-coated lid (4′) alone was placed, such that the surface coated with farnesylacetone faced the inside of the box. The box was placed in an incubator at 37° C. for 60 min until the farnesylacetone vapor filled the test section side of the test box. […] Thereafter, the test container was taken out, the number of Acarina that invaded into the feeds in the test section side and the control section side (50 and 1100, respectively, the rest of the Acarina fled) was counted. The repellence rate was determined by the following formula and found to be 95%. The concentration of farnesylacetone filled in the air at 37° C. was measured in the same manner as in Reference Example 1 and assumed to be 5 μg/L. Repellence rate (%)=(1− number of Acarina that invaded the test section/number of Acarina that invaded the control section)×100 […]

[4] = tested on: Acarina; assay: Repellence test with supplied gas containing 0.001 μg/L farnesylacetone in modified glass plate test apparatus; type: in vivo; conditions: gas containing 0.001 μg/L farnesylacetone at 1 mL/min; 37±1° C., 75±5% Rh; 4 hr
Protocol: A 2L flask containing the gas containing 0.001 μg/L farnesylacetone prepared in the same manner as in Reference Example 1 was equipped with a Teflon® tube (inner diameter 2 mm) for discharging the gas containing farnesylacetone and a Teflon® tube for charging water into the container using a metering pump, whereby an apparatus to send out (supply) the gas containing farnesylacetone at 1 mL/min by introducing water into the flask at 1 mL/min was manufactured. […]
Then the test apparatus was placed in a room with constant temperature and humidity at 37±1° C., 75±5% Rh, and the apparatus was operated for 3 hr for filling the test section with the above-mentioned concentration of farnesylacetone, after which an Acarina medium containing 10000 live Acarina were inserted from the gap of the lid and left standing for 4 hr. Then, the number of Acarina that invaded into the feed for attraction in each part C of the test section side and the control section side was counted. […] The number of Acarina floating in the upper layer was counted. The repellence rate was determined by the following formula and found to be 80%. […]

[5] = Measurement of farnesylacetone concentration in the air (gas chromatography, FID, absolute calibration); type: physicochemical; conditions: for farnesylacetone concentration in gas of sample bottle: 1 hr
Protocol: measurement of farnesylacetone concentration in the air
Farnesylacetone (1 mL) was placed in a 50 mL sample bottle, and a large magnetic stirring bar capable of rotating the air as well was placed therein. The bottle was placed neck-deep in an oil bath at 130° C. with rotation, and heated for 1 hr to saturate the inside of the sample bottle with farnesylacetone vapor. Thereafter, the gas in the sample bottle was taken by 5 mL with a gas tight syringe, and using gas chromatography with an FID detector, the concentration of farnesylacetone was measured by the absolute calibration method.
Farnesylacetone (1 mL) was placed in a 50 mL sample bottle, and a large magnetic stirring bar capable of rotating the air as well was placed therein. The bottle was placed neck-deep in a water bath at 60° C. with rotation, and heated for 1 hr to fill the inside of the sample bottle with farnesylacetone vapor. Thereafter, the gas in the sample bottle was taken by 5 mL with a gas tight syringe, and using gas chromatography with an FID detector, the concentration of farnesylacetone was measured by an absolute calibration method. […] Almost simultaneously, the gas (5 mL) in the sample bottle was taken again, a propeller was set in a 10 L beaker, the gas was added into the sealed beaker, the air in the beaker was stirred with the propeller for 10 min to dilute the gas 2,000-fold, whereby gas containing 0.01 μg/L farnesylacetone was obtained. The diluted gas (200 mL) was sampled with a syringe, a propeller was set in a 2 L flask, the gas was added into the sealed flask, the air in the beaker was stirred with the propeller for 10 min to further dilute the gas 10-fold, whereby gas containing 0.001 μg/L farnesylacetone was obtained.

[6] = tested on: human; assay: Odor and effect on human of sampled gas containing farnesylacetone; conditions: gas containing 20,000 μg/L farnesylacetone
Protocol: Farnesylacetone (1 mL) was placed in a 50 mL sample bottle, and a large magnetic stirring bar capable of rotating the air as well was placed therein. The bottle was placed neck-deep in a water bath at 60° C. with rotation, and heated for 1 hr to fill the inside of the sample bottle with farnesylacetone vapor. Thereafter, the gas in the sample bottle was taken by 5 mL with a gas tight syringe, and using gas chromatography with an FID detector, the concentration of farnesylacetone was measured by an absolute calibration method. […] Almost simultaneously, the gas (5 mL) in the sample bottle was taken again, a propeller was set in a 10 L beaker, the gas was added into the sealed beaker, the air in the beaker was stirred with the propeller for 10 min to dilute the gas 2,000-fold, whereby gas containing 0.01 μg/L farnesylacetone was obtained. […]

Row | SMILES | repellence rate, 1 day later [1] [%] | repellence rate, 2 days later [1] [%] | repellence rate, 3 days later [1] [%] | number of Acarina, 1 day later [1] [Acarina] | number of Acarina, 2 days later [1] [Acarina] | number of Acarina, 3 days later [1] [Acarina] | Repellence rate [2] [%] | number of Acarina that invaded into the feed in the test section side ([3]; 50,000 released, control section side 1100) | Repellence rate ([3]; lid coated with 1% ethanol solution (100 mg), vapor only, 5 μg/L) [%] | Repellence rate [4] [%] | farnesylacetone concentration in gas of sample bottle ([5]; 60° C. water bath) [µg/L] | farnesylacetone concentration in gas of sample bottle ([5]; 130° C. oil bath, saturated vapor) | farnesylacetone concentration of the gas in part D ([5]; L-shaped glass tube of Example 1, after 48 hr at 37±1° C.) [µg/L] | concentration of farnesylacetone filled in the air ([5]; at 37° C., test box of Example 2) [ng/mL] | odor and effect of sampled gas on human [6]
1 | CC(=O)CCC=C(C)CCC=C(C)CCC=C(C)C [cis-cis rich farnesylacetone, farnesylacetone] | 92.3 | 88.6 | 79.3 | 5 | 15 | 29 |  |  |  |  |  |  |  |  | 
2 | CC(=O)CC/C=C(\C)CC/C=C(\C)CCC=C(C)C [farnesylacetone] |  |  |  |  |  |  | 98 | 50 | 95 | 80 | 20 | 20,000 μg/L | ~5 | ~5 | had a strong odor, caused cough when inhaled in a large amount, and provoked uncomfortable feeling in human
3 | CC(=O)CCCC(C)CCCC(C)CCCC(C)C (stereo not drawn) [phytone] | 89.2 | 90.9 | 83.6 | 7 | 12 | 23 |  |  |  |  |  |  |  |  | 
4 | CC(=O)CCC=C(C)CCC=C(C)CCC=C(C)C [trans-trans farnesylacetone, farnesylacetone] | 87.7 | 90.2 | 82.9 | 8 | 13 | 24 |  |  |  |  |  |  |  |  | 
